# From patent US11629333B2, “Gamma delta T cells and a method of augmenting the tumoricidal activity of the same” (Agency for Science, Technology and Research, priority 2017, dated 2023)
# Experiments:
# [1] = system: SW480 human colon carcinoma cells, HepG2 human hepatocarcinoma cells, U87 human glioblastoma cells and SKOV3 human ovarian cancer cells; experiment: Delfia EuTDA cytotoxicity assay, tumor cells with or without Zometa pre-treatment; format: cell-based; conditions: 1 μM Zometa pre-treatment of tumor cells
# Description: Target tumor cells tested were SW480 human colon carcinoma, HepG2 human hepatocarcinoma cells, U87 human glioblastoma cells and SKOV3 human ovarian cancer cells. Tumor cells were either pre-treated with 1 μM Zometa or without Zometa treatment. Effector used are indicated. Delfia EuTDA cytotoxicity assay (3 hours EuTDA culturing) was used to assess tumor cell lysis efficiency at an effector to target ratio of 10:1. The results of one representative experiment out of three are shown.
# The cytolytic activity of CAR-modified Vγ9Vδ2 T cells was examined with a non-radioactive method (DELFIA EuTDA Cytotoxicity Reagents kit, PerkinElmer, MA). Time-resolved fluorescence was measured in Victor3 multilabel plate counter (PerkinElmer). The effector to target (E:T) ratios used ranged from 20:1 to 2.5:1. Control groups were set up to measure spontaneous release (only target cells added), maximum release (target cells added with 10 μl lysis buffer), and medium background (no cell added). Killing efficacy was calculated by using the following formula: […]
# Zometa treatment was used because Zometa can increase intracellular levels of IPP, thereby increasing the sensitivity of tumor cells to Vγ9Vδ2 T cells.
# Human PBMCs = experiment: Expansion of Vγ9Vδ2 T cells from PBMCs, cell frequencies by flow cytometry; format: cell-based
# Text: FIGS. 1A to 1D (collectively referred to as “FIG. 1”) show the characterization of the cells expanded with Zometa, OKT3 and gamma-irradiated K562 aAPCs. Human PBMCs were first expanded with Zometa for 7 days, followed by treatment with Zometa, OKT3 and gamma-irradiated K562 aAPCs for another 10 days. Frequencies of Vγ9Vδ2 T cells (FIG. 1A), NKG2D-positive cells (FIG. 1B), CD3-positive alpha beta T cells (FIG. 1C) and CD3-negative, CD56-positive NK cells (FIG. 1D) in PBMCs, on day 7 and day 17 analyzed by flow cytometry are shown. PBMC samples from 7 donors were tested and each sample is represented by one line.
# Human PBMC were isolated from fresh buffy coat of healthy donors by density gradient centrifugation using Ficoll-Paque (GE Healthcare, Milwaukee, Wis.). Human myelogenous leukemia cell line K562 (ATCC) and a K562-based aAPC cell line genetically engineered for stable expression of EGFP, CD86, CD64 and 4-1BBL (Du et al., 2016) were cultured in IMDM (Lonza Biotech, Basel, Switzerland) supplemented with 10% FBS. Other tumor cell lines used in the present invention were cultured in DMEM supplemented with 10% FBS.
# (§1) For Vγ9Vδ2 T cell activation and expansion, PBMCs were seeded at a density of 2E6 cells/ml in AIM-V (Life Technologies) supplemented with 5% human AB serum (Valley Biomedical, Winchester, Va.). Zometa (5 μM, Sigma Aldrich, St. Louis, Mo.) and IL-2 (300 IU/ml) were added on day 0, followed by adding 50 ng/ml anti-CD3 antibody (OKT3 clone, eBioscience, San Diego, Calif.), gamma irradiated K562 aAPCs at a 100:1 ratio, 300 IU/ml IL-2, and 5 μM Zometa from day 7 onwards. […] The culture medium was refreshed every 2 to 3 days. In other words, the cells were passaged every 2 to 3 days.
# [2] = system: CTLA-4, PD1, LAG3, TIGIT, TIM3, and BTLA; experiment: Expression of co-inhibitory receptors on PBMCs and expanded cells by flow cytometry; format: cell-based, human
# Text: FIGS. 2A to 2F (collectively referred to as “FIG. 2”) show the expression of co-inhibitory receptors CTLA-4 (FIG. 2A), PD-1 (FIG. 2B), LAG-3 (FIG. 2C), TIGIT (FIG. 2D), TIM-3 (FIG. 2E) and BTLA (FIG. 2F) on PBMCs and the expanded cells. Human PBMCs were first expanded with Zometa for 7 days, followed by treatment with Zometa, OKT3 and gamma-irradiated K562 aAPCs for another 10 days. The expression frequencies of 6 co-inhibitory receptors on PBMCs and on the expanded cells collected on day 7 and day 17 analyzed by flow cytometry are shown. PBMC samples from 7 donors were tested and each sample is represented by one line.
# as §1
# In view of the important roles of co-inhibitory receptors in cancer therapy, the expression of six of them, namely, CTLA-4, PD1, LAG3, TIGIT, TIM3, and BTLA, on the Zometa-expanded Vγ9Vδ2 T cells was examined using flow cytometry (FIG. 2).
# [3] = PBMCs treated with Zometa, day 7
# [4] = 7 days after Zometa treatment, all 7 samples
smiles,measurement,setting,value
"O=P(O)(O)C(O)(Cn1ccnc1)P(=O)(O)O [Zometa, zoledronic acid]",sensitivity of HepG2 cells towards Vγ9Vδ2 T cells,[1]; HepG2,not
same,sensitivity of SKOV3 cells towards Vγ9Vδ2 T cells,[1]; SKOV3,significantly increased
same,sensitivity of SW480 cells towards Vγ9Vδ2 T cells,[1]; SW480,significantly increased
same,sensitivity of U87 cells towards Vγ9Vδ2 T cells,[1]; U87,significantly increased
same,NKG2D-positive cell population,"Human PBMCs; PBMCs treated with 5 μM Zometa, day 0 to day 7",increase
same,Vγ9Vδ2 T-cell population,"Human PBMCs; PBMCs treated with 5 μM Zometa, day 7",~90%
same,proportion of NK cells,Human PBMCs; [3],less than 3%
same,proportion of αβ T cells,Human PBMCs; [3],less than 10%
same,CTLA-4-expressing cells,[2]; [4],significant increase
same,LAG3-expressing cells,[2]; [4],significant increase
same,TIGIT-expressing cells,[2]; [4],significant increase
same,TIM3-expressing cells,[2]; [4],significant increase
same,frequency of PD1-positive cells,"[2]; 7 days after Zometa treatment, remaining samples (one sample increased, one decreased)",minor increase or no change
same,BTLA expression,[2]; Zometa treatment for 7 days,reduced
